Measurements: patent US20240246941A1, “SUBSTITUTED 4-(3-AMINOPROP-1-YL)AMINOQUINOLINE ANALOGS AS MODULATORS OF MELANOMA-ASSOCIATED ANTIGEN 11 UBIQUITIN LIGASE” (ST. JUDE CHILDREN'S RESEARCH HOSPITAL, INC., priority 2020, published 2024)

biological target: MAGE-A11:PCF11 (Homo sapiens (Human), UniProt P43364); assay: TR-FRET single point screening at 15 μM; assay type: binding; set-up: unit not given here; conditions: single point TR-FRET screening at 15 μM against MAGE-A11:PCF11
Text: TR-FRET Assays and High-throughput Screen. Terbium-anti-GST antibody, 1 M Tris pH 7.5 1 M MgCl2 and 1 M DTT were purchased from Invitrogen (Carlsbad, CA), BSA was purchased from Sigma (St. Louis, MO). Dimethyl sulfoxide (DMSO) was purchased from Fisher Scientific (Pittsburgh, PA). Black 384-well low volume plates and 384-well polypropylene compound plates were purchased from Corning Incorporated (Tewksbury, MA). The St. Jude FDA drug and Bioactive library (11,293 chemicals), Drug-like library (10,073 chemicals) and Lead-like library (10,041 chemicals) were custom assembled and purchased from commercial sources including Sigma, Microsource (Gaylordsville, CT), selleckchem (Houston, TX), ChemDiv (San Diego, CA), ChemBridge (San Diego, CA), Enamine (Monmouth Jct., NJ), and Life Chemicals (Niagara-on-the-Lake, ON, Canada). They were arrayed (10 mM in DMSO) in 384-well polypropylene compound plates with columns 1, 2, 13 and 14 empty which were reserved for controls.
The TR-FRET assay buffer with a formula of 50 mM Tris pH 7.5, 20 mM MgCl2, 0.1 mg/ml BSA and 1 mM DTT was freshly prepared before each experiment. All TR-FRET assays were performed in black 384-well plates with 20 μl/well assay volume in the TR-FRET assay buffer at room temperature (approximately 25° C.). All peptides or compounds were solubilized in DMSO. To test the competitive activity of peptides or compounds against the interaction between GST-MAGEA11 MHD and FAM-PCF11_4 peptide, 10 μl/well peptide or compound at specified concentration was dispensed into a black 384-well low volume plate, followed by 5 μl/well FAM-PCF11_4 (800 nM), 5 μl/well Tb-anti-GST (20 nM) and GST-MAGEA11 MHD (20 nM). The assay components in each well was then mixed by shaking the plate on an IKA MTS 2/4 digital microtiter plate shaker (IKA Works; Wilmington, NC, USA) at 900 RPM for 1 minute. The plate was further centrifuged in an Eppendorf 5810 centrifuge with an A-4-62 swing-bucket rotor (Eppendorf AG, Hamburg, Germany) at 201 g (1000 rpm) for 30 seconds. The plate was then incubated for 90 min with a lid to avoid light exposure to the assay components. After incubation, the fluorescent emission signals at 520 nm and 490 nm channels of individual wells were measured with a PHERAstar FS plate reader (BMG Labtech; Durham, NC, USA) by using a 340 nm excitation filter, 100 μs delay time, and 200 μs integration time. The TR-FRET fluorescence emission ratio (TR-FRET signal) for each well was presented as 10 000×520 nm/490 nm, which was used directly for curve fitting, or further converted to % Inhibition based on the respective positive and negative controls. The graphic software GraphPad Prism 4.81 (GraphPad Software; La Jolla, CA, USA) was used to generate curves and derive IC50 values of tested peptides or compounds, if applicable.
TR-FRET screen for identifying MAGEA11 small molecule inhibitors was performed as follows. The primary one-concentration screening and subsequent 10 or 20-concentration dose response tests were accomplished with an automated High Throughput Screening system (HighRes Biosolutions, Beverly, MA)^30. In the primary screening, 15 μl/well FAM-PCF11_4 (267 nM) was first dispensed with a Multidrop Combi Reagent Dispenser (Thermo Fisher Scientific, Waltham, MA) to black 384-well low volume assay plates. The plates were spun down with a Velocity11 VSpin microplate centrifuge (Agilent Technologies, Santa Clara, CA). 30 nl/well of 10 mM compound/DMSO solutions, or DMSO alone, were transferred from compound plates (the St. Jude FDA drug and bioactive library, Drug-like library and Lead-like library) or a control plate to the assay plates with a Pin Tool (V&P Scientific, San Diego, CA). The compounds were arrayed in columns 3 to 12 and columns 15 to 24 of compound plates. The controls were arrayed in columns 1, 2, 13 and 14 of a compound plate. […]

MAGE-A11:PCF11, sequence (P43364 218-429): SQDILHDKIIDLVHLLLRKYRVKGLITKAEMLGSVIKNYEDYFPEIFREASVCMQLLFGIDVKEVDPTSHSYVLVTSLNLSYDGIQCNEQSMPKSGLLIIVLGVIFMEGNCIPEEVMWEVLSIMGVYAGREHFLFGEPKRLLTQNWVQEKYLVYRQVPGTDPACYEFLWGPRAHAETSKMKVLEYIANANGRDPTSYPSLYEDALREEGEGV

SMILES	TR-FRET signal
COc1ccc(N2CCN(c3c(S(=O)(=O)c4ccccc4)cnc4ccc(Cl)cc34)CC2)cc1 [SJ000083983]	−17.94
CN(C)c1cc(NC(=O)CN2CCOCC2)c2ccccc2n1 [SJ000111677]	4.988
CN(C)c1cc(NC(=O)CNC(C)(C)CC(C)(C)C)c2ccccc2n1 [SJ000111678]	10.62
Cc1cc(NC(=O)CN2CCN(C(=O)c3ccco3)CC2)c2ccccc2n1 [SJ000111679]	−1.072
Cc1cc(NC(=O)CN2CCN(C)CC2)c2ccccc2n1 [SJ000111680]	4.647
CCc1nc2ccccc2c(NC(=O)CN2CCN(c3ccccc3)CC2)c1C [SJ000111681]	6.894
CCc1nc2ccccc2c(NC(=O)CN2CCCCC2)c1C [SJ000111682]	1.593
O=C(CN1CCN(C(=O)c2ccccc2)CC1)Nc1c2c(nc3ccccc13)N(c1cccc(Cl)c1)CC2 [SJ000111683]	−264.3
O=C(CN1CCN(C(c2ccccc2)c2ccccc2)CC1)Nc1c2c(nc3ccccc13)CCC2 [SJ000111684]	11.85
COc1ccc(-c2csc(N3CCN(c4cc(C)nc5ccccc45)CC3)n2)cc1OC [SJ000114009]	−53.43
Cc1ccc(S(=O)(=O)c2cnc3ccccc3c2N2CCN(c3ccccc3)CC2)cc1 [SJ000117047]	−6.567
COc1ccc2ncc(S(=O)(=O)c3ccc(C)cc3)c(N3CCN(c4ccccc4)CC3)c2c1 [SJ000117048]	−85.57
CCOc1ccc2ncc(S(=O)(=O)c3ccc(C)cc3)c(N3CCN(c4ccccc4)CC3)c2c1 [SJ000117049]	−45.32
Cc1ccc(S(=O)(=O)c2cnc3ccc(Cl)cc3c2N2CCN(c3ccccc3)CC2)cc1 [SJ000117050]	−3.321
COc1ccc2ncc(S(=O)(=O)c3ccc(C)c(C)c3)c(N3CCN(c4ccccc4)CC3)c2c1 [SJ000117051]	−52.48
Cc1ccc(S(=O)(=O)c2cnc3ccc(F)cc3c2N2CCN(c3ccccc3)CC2)cc1C [SJ000117052]	−16.9
CCc1ccc(S(=O)(=O)c2cnc3ccccc3c2N2CCN(c3ccccc3)CC2)cc1 [SJ000117053]	−21.21
CCOc1ccc2ncc(S(=O)(=O)c3ccc(Cl)cc3)c(N3CCN(c4ccccc4)CC3)c2c1 [SJ000117054]	−446.9
O=S(=O)(c1ccc(Cl)cc1)c1cnc2ccc(F)cc2c1N1CCN(c2ccccc2)CC1 [SJ000117055]	2.112
CCc1ccc2ncc(S(=O)(=O)c3ccc(OC)cc3)c(N3CCN(c4ccccc4)CC3)c2c1 [SJ000117056]	−2.791
Cc1ccc(S(=O)(=O)c2cnc3ccccc3c2N2CCN(c3ccc(F)cc3)CC2)cc1 [SJ000117057]	−20.61
Cc1ccc(S(=O)(=O)c2cnc3ccc(C)cc3c2N2CCN(c3ccc(F)cc3)CC2)cc1 [SJ000117058]	−4.068
COc1ccc2ncc(S(=O)(=O)c3ccc(C)cc3)c(N3CCN(c4ccc(F)cc4)CC3)c2c1 [SJ000117059]	−118.5
CCOc1ccc2ncc(S(=O)(=O)c3ccc(C)cc3)c(N3CCN(c4ccc(F)cc4)CC3)c2c1 [SJ000117060]	−11.07
Cc1ccc(S(=O)(=O)c2cnc3ccc(F)cc3c2N2CCN(c3ccc(F)cc3)CC2)cc1 [SJ000117061]	−70.5
Cc1ccc(S(=O)(=O)c2cnc3ccccc3c2N2CCN(c3ccc(F)cc3)CC2)cc1C [SJ000117062]	−54.86
O=S(=O)(c1ccc(F)cc1)c1cnc2ccc(Cl)cc2c1N1CCN(c2ccc(F)cc2)CC1 [SJ000117063]	−4.205
CCc1ccc2ncc(S(=O)(=O)c3ccc(OC)cc3)c(N3CCN(c4ccc(F)cc4)CC3)c2c1 [SJ000117064]	−9.084
COc1ccccc1N1CCN(c2c(S(=O)(=O)c3ccc(C)cc3)cnc3ccccc23)CC1 [SJ000117065]	−8.687
COc1ccccc1N1CCN(c2c(S(=O)(=O)c3ccc(C)cc3)cnc3ccc(C)cc23)CC1 [SJ000117066]	−92.89
